Measured values from PubChem BioAssay AID2060895 (Molecular Pharmacology Branch, DTP, NCI, 2025).
Blank lines part the entries; values can stand above or below the compound they belong to.

System: PDC 899932-113-R3-J6 complex spheroid viability
Assay: Anticancer human tumor 899932-113-R3-J6-PDC patient-derived melanoma cell line growth inhibition [RAS]
Details: for IC50: curve of first compound; for viability, T/C: stronger effect = lower value
How it was run: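 Tumour cells grown as complex spheroids with HUVEC endothelial cells and mesenchymal stem cells, treated with RAS pathway inhibitor combinations. Each agent spans half-log steps from near clinical Cmax, or 10 microM where Cmax is unknown.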
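Throughout, for viability, T/C: spheroids exposed to agents for seven days before readout; 100% = DMSO vehicle control wells.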

IC50 (second compound 0.000949 µM): > 1 µM
IC50 (second compound 0.003 µM): > 1 µM
IC50 (second compound 0.00949 µM): > 1 µM
IC50 (second compound 0.03 µM): > 1 µM
IC50 (second compound 0.0949 µM): > 1 µM
IC50 (second compound 0.3 µM): > 1 µM
Compound: C=CC(=O)N1CCN(c2nc(OCC3CCCN3C)nc3c(F)c(-c4nc(N)cc(C)c4C(F)(F)F)c(Cl)cc23)C(C)C1 (centres undefined) + CCn1c(-c2cccnc2C(C)OC)c2c3cc(ccc31)N1CCOC(CC(NC(=O)C(C(C)C)N(C)C(=O)C3(F)CCN(C(=O)C#CC(C)(C)N(C)C)CC3)C(=O)N3CCCC(N3)C(=O)OCC(C)(C)C2)C1
viability, T/C (second compound 0.000949 µM, first compound 0.00316 µM): 113%
viability, T/C (second compound 0.000949 µM, first compound 0.01 µM): 101%
viability, T/C (second compound 0.000949 µM, first compound 0.0316 µM): 118%
viability, T/C (second compound 0.000949 µM, first compound 0.1 µM): 106%
viability, T/C (second compound 0.000949 µM, first compound 0.316 µM): 108%
viability, T/C (second compound 0.000949 µM, first compound 1 µM): 105%
viability, T/C (second compound 0.003 µM, first compound 0.00316 µM): 107%
viability, T/C (second compound 0.003 µM, first compound 0.01 µM): 118%
viability, T/C (second compound 0.003 µM, first compound 0.0316 µM): 105%
viability, T/C (second compound 0.003 µM, first compound 0.1 µM): 108%
viability, T/C (second compound 0.003 µM, first compound 0.316 µM): 108%
viability, T/C (second compound 0.003 µM, first compound 1 µM): 104%
viability, T/C (second compound 0.00949 µM, first compound 0.00316 µM): 110%
viability, T/C (second compound 0.00949 µM, first compound 0.01 µM): 107%
viability, T/C (second compound 0.00949 µM, first compound 0.0316 µM): 102%
viability, T/C (second compound 0.00949 µM, first compound 0.1 µM): 107%
viability, T/C (second compound 0.00949 µM, first compound 0.316 µM): 112%
viability, T/C (second compound 0.00949 µM, first compound 1 µM): 106%
viability, T/C (second compound 0.03 µM, first compound 0.00316 µM): 106%
viability, T/C (second compound 0.03 µM, first compound 0.01 µM): 97%
viability, T/C (second compound 0.03 µM, first compound 0.0316 µM): 110%
viability, T/C (second compound 0.03 µM, first compound 0.1 µM): 110%
viability, T/C (second compound 0.03 µM, first compound 0.316 µM): 114%
viability, T/C (second compound 0.03 µM, first compound 1 µM): 104%
viability, T/C (second compound 0.0949 µM, first compound 0.00316 µM): 101%
viability, T/C (second compound 0.0949 µM, first compound 0.01 µM): 102%
viability, T/C (second compound 0.0949 µM, first compound 0.0316 µM): 96%
viability, T/C (second compound 0.0949 µM, first compound 0.1 µM): 101%
viability, T/C (second compound 0.0949 µM, first compound 0.316 µM): 95.2%
viability, T/C (second compound 0.0949 µM, first compound 1 µM): 92.8%
viability, T/C (second compound 0.3 µM, first compound 0.00316 µM): 91.2%
viability, T/C (second compound 0.3 µM, first compound 0.01 µM): 87%
viability, T/C (second compound 0.3 µM, first compound 0.0316 µM): 92.1%
viability, T/C (second compound 0.3 µM, first compound 0.1 µM): 87.9%
viability, T/C (second compound 0.3 µM, first compound 0.316 µM): 84.9%
viability, T/C (second compound 0.3 µM, first compound 1 µM): 90.9%

IC50 (second compound 0.000949 µM): 0.0259 µM
IC50 (second compound 0.003 µM): 0.0201 µM
IC50 (second compound 0.00949 µM): 0.0216 µM
IC50 (second compound 0.03 µM): 0.0268 µM
IC50 (second compound 0.0949 µM): 0.0225 µM
IC50 (second compound 0.3 µM): 0.0188 µM
Compound: CC1(C)CCC(Nc2ncc(C(F)(F)F)c(-c3c[nH]c4c(P(C)(C)=O)c(C#N)ccc34)n2)CN1 (centres undefined) + CCn1c(-c2cccnc2C(C)OC)c2c3cc(ccc31)N1CCOC(CC(NC(=O)C(C(C)C)N(C)C(=O)C3(F)CCN(C(=O)C#CC(C)(C)N(C)C)CC3)C(=O)N3CCCC(N3)C(=O)OCC(C)(C)C2)C1
viability, T/C (second compound 0.000949 µM, first compound 0.000949 µM): 105%
viability, T/C (second compound 0.000949 µM, first compound 0.003 µM): 75.8%
viability, T/C (second compound 0.000949 µM, first compound 0.00949 µM): 62.9%
viability, T/C (second compound 0.000949 µM, first compound 0.03 µM): 52.4%
viability, T/C (second compound 0.000949 µM, first compound 0.0949 µM): 34%
viability, T/C (second compound 0.000949 µM, first compound 0.3 µM): 15.1%
viability, T/C (second compound 0.003 µM, first compound 0.000949 µM): 112%
viability, T/C (second compound 0.003 µM, first compound 0.003 µM): 78.6%
viability, T/C (second compound 0.003 µM, first compound 0.00949 µM): 61.3%
viability, T/C (second compound 0.003 µM, first compound 0.03 µM): 43.4%
viability, T/C (second compound 0.003 µM, first compound 0.0949 µM): 37.8%
viability, T/C (second compound 0.003 µM, first compound 0.3 µM): 15.5%
viability, T/C (second compound 0.00949 µM, first compound 0.000949 µM): 98.1%
viability, T/C (second compound 0.00949 µM, first compound 0.003 µM): 86.6%
viability, T/C (second compound 0.00949 µM, first compound 0.00949 µM): 61.9%
viability, T/C (second compound 0.00949 µM, first compound 0.03 µM): 41%
viability, T/C (second compound 0.00949 µM, first compound 0.0949 µM): 34.4%
viability, T/C (second compound 0.00949 µM, first compound 0.3 µM): 15%
viability, T/C (second compound 0.03 µM, first compound 0.000949 µM): 104%
viability, T/C (second compound 0.03 µM, first compound 0.003 µM): 88.2%
viability, T/C (second compound 0.03 µM, first compound 0.00949 µM): 64.7%
viability, T/C (second compound 0.03 µM, first compound 0.03 µM): 46.5%
viability, T/C (second compound 0.03 µM, first compound 0.0949 µM): 36.2%
viability, T/C (second compound 0.03 µM, first compound 0.3 µM): 20.2%
viability, T/C (second compound 0.0949 µM, first compound 0.000949 µM): 100%
viability, T/C (second compound 0.0949 µM, first compound 0.003 µM): 75.6%
viability, T/C (second compound 0.0949 µM, first compound 0.00949 µM): 59.8%
viability, T/C (second compound 0.0949 µM, first compound 0.03 µM): 47.4%
viability, T/C (second compound 0.0949 µM, first compound 0.0949 µM): 35.6%
viability, T/C (second compound 0.0949 µM, first compound 0.3 µM): 20.6%
viability, T/C (second compound 0.3 µM, first compound 0.000949 µM): 79.3%
viability, T/C (second compound 0.3 µM, first compound 0.003 µM): 71.8%
viability, T/C (second compound 0.3 µM, first compound 0.00949 µM): 57.1%
viability, T/C (second compound 0.3 µM, first compound 0.03 µM): 43.5%
viability, T/C (second compound 0.3 µM, first compound 0.0949 µM): 37.4%
viability, T/C (second compound 0.3 µM, first compound 0.3 µM): 28.4%
